Assay results as given in BindingDB's records for doi:10.1111/cbdd.12546 (Zhejiang University of Technology, 2015).

Biological target: Glycogen synthase kinase-3 beta (Homo sapiens, UniProt P49841)
Assay: Kinase Assay

Chain of Glycogen synthase kinase-3 beta (P49841 whole entry): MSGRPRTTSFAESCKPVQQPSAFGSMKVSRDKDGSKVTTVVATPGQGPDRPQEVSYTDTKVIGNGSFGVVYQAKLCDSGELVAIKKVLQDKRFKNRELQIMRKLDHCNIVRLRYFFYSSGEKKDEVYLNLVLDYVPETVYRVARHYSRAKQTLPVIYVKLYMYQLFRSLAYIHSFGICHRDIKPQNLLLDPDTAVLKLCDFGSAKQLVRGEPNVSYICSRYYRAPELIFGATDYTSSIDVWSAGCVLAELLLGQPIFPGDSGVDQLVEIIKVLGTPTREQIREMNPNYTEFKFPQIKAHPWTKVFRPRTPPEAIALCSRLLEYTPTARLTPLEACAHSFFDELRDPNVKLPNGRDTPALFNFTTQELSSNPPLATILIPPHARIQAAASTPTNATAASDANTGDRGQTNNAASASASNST

SMILES	IC50
O=C1NC(=O)C(c2cn(CCCn3ccnc3)c3ccc(Br)cc23)=C1c1coc2ncccc12 [3-(1-(3-(1H-Imidazol-1-yl)propyl)-5-bromo-1H-indol-3-yl)-4-(furo[2,3-b]pyridin-3-yl)-1H-pyrrole-2,5-dione (5o)]	190 nM
Cc1cccc2c(C3=C(c4coc5ncccc45)C(=O)NC3=O)cn(C)c12 [3-(1,7-dimethyl-1H-indol-3-yl)-4-(furo[2,3-b]pyridin-3-yl)-1H-pyrrole-2,5-dione (5c)]	290 nM
O=C1NC(=O)C(c2cn(CCCn3ccnc3)c3ccccc23)=C1c1coc2ncccc12 [3-(1-(3-(1H-Imidazol-1-yl)propyl)-1H-indol-3-yl)-4-(furo[2,3-b]pyridin-3-yl)-1H-pyrrole-2,5-dione (5n)]	210 nM
C=CCn1cc(C2=C(c3coc4ncccc34)C(=O)NC2=O)c2ccccc21 [3-(1-Allyl-1H-indol-3-yl)-4-(furo[2,3-b]pyridin-3-yl)-1H-pyrrole-2,5-dione (5k)]	530 nM
Cn1cc(C2=C(c3coc4ncccc34)C(=O)NC2=O)c2ccc(Cl)cc21 [3-(6-Chloro-1-methyl-1H-indol-3-yl)-4-(furo[2,3-b]pyridin-3-yl)-1H-pyrrole-2,5-dione (5g)]	1840 nM
O=C1NC(=O)C(c2cn(CCCn3ccnc3)c3ccc(Cl)cc23)=C1c1coc2ncccc12 [3-(1-(3-(1H-Imidazol-1-yl)propyl)-5-chloro-1H-indol-3-yl)-4-(furo[2,3-b]pyridin-3-yl)-1H-pyrrole-2,5-dione (5p)]	240 nM
Cn1cc(C2=C(c3coc4ncccc34)C(=O)NC2=O)c2cc(Br)ccc21 [3-(5-Bromo-1-methyl-1H-indol-3-yl)-4-(furo[2,3-b]pyridin-3-yl)-1H-pyrrole-2,5-dione (5h)]	70 nM
Cn1cc(C2=C(c3coc4ncccc34)C(=O)NC2=O)c2cc(Cl)ccc21 [3-(5-Chloro-1-methyl-1H-indol-3-yl)-4-(furo[2,3-b]pyridin-3-yl)-1H-pyrrole-2,5-dione (5f)]	170 nM
Cn1cc(C2=C(c3coc4ncccc34)C(=O)NC2=O)c2ccc(Br)cc21 [3-(6-Bromo-1-methyl-1H-indol-3-yl)-4-(furo[2,3-b]pyridin-3-yl)-1H-pyrrole-2,5-dione (5i)]	1940 nM
Cn1cc(C2=C(c3coc4ncccc34)C(=O)NC2=O)c2ccc(F)cc21 [3-(6-Fluoro-1-methyl-1H-indol-3-yl)-4-(furo[2,3-b]pyridin-3-yl)-1H-pyrrole-2,5-dione (5e)]	560 nM
Cn1cc(C2=C(c3coc4ncccc34)C(=O)NC2=O)c2cc(F)ccc21 [3-(5-Fluoro-1-methyl-1H-indol-3-yl)-4-(furo[2,3-b]pyridin-3-yl)-1H-pyrrole-2,5-dione (5d)]	390 nM
CCCCn1cc(C2=C(c3coc4ncccc34)C(=O)NC2=O)c2ccccc21 [3-(1-Butyl-1H-indol-3-yl)-4-(furo[2,3-b]pyridin-3-yl)-1H-pyrrole-2,5-dione (5l)]	570 nM

Second part, the molecule after the results:

IC50	SMILES
690 nM	O=C1NC(=O)C(c2cn(CCCN3CCOCC3)c3ccccc23)=C1c1coc2ncccc12 [3-(Furo[2,3-b]pyridin-3-yl)-4-(1-(3-morpholinopropyl)-1H-indol-3-yl)-1H-pyrrole-2,5-dione (5r)]
280 nM	Cn1cc(C2=C(c3coc4ncccc34)C(=O)NC2=O)c2ccccc21 [3-(Furo[2,3-b]pyridin-3-yl)-4-(1-methyl-1H-indol-3-yl)-1H-pyrrole-2,5-dione (5b)]
190 nM	CC(C)n1cc(C2=C(c3coc4ncccc34)C(=O)NC2=O)c2ccccc21 [3-(Furo[2,3-b]pyridin-3-yl)-4-(1-isopropyl-1H-indol-3-yl)-1H-pyrrole-2,5-dione (5m)]
1780 nM	O=C1NC(=O)C(c2coc3ncccc23)=C1c1c[nH]c2ccccc12 [3-(Furo[2,3-b]pyridin-3-yl)-4-(1H-indol-3-yl)-1H-pyrrole-2,5-dione (5a)]
1310 nM	COc1ccc2c(c1)c(C1=C(c3coc4ncccc34)C(=O)NC1=O)cn2C [3-(Furo[2,3-b]pyridin-3-yl)-4-(5-methoxy-1-methyl-1H-indol-3-yl)-1H-pyrrole-2,5-dione (5j)]
310 nM	O=C1NC(=O)C(c2cn(CCCO)c3ccccc23)=C1c1coc2ncccc12 [3-(Furo[2,3-b]pyridin-3-yl)-4-(1-(3-hydroxypropyl)-1H-indol-3-yl)-1H-pyrrole-2,5-dione (5q)]
